Results reported in patent US20260022142A1, “MACROCYCLIC IMMUNOMODULATORS” (Bristol-Myers Squibb Company, priority 2022, published 2026).
Bridge positions count the residues as written; N and C are the ends. Square brackets hold non-standard residues; d marks the D form. Peptide text beside a SMILES is read from it. * marks the point of attachment. ξ: configuration not given here. Phe(4-CH2CH2COOH) = N[C@@H](Cc1ccc(CCC(=O)O)cc1)C(=O)O; Phe(3-CF3) = N[C@@H](Cc1cccc(C(F)(F)F)c1)C(=O)O; Phe(4-COOH) = N[C@@H](Cc1ccc(C(=O)O)cc1)C(=O)O; Bip = N[C@@H](Cc1ccc(-c2ccccc2)cc1)C(=O)O; Abu(4,4,4-F3) = N[C@@H](CC(F)(F)F)C(=O)O; NH(CH2)14COOH = O=C(O)CCCCCCCCCCCCCCN*; Phe(3-Me) = Cc1cccc(C[C@H](N)C(=O)O)c1; NH(CH2)12COOH = O=C(O)CCCCCCCCCCCCN*; Val(3-OH) = CC(C)(O)[C@H](N)C(=O)O; Cha = N[C@@H](CC1CCCCC1)C(=O)O; Thr(3ξ) = CC(O)[C@H](N)C(=O)O; Carboxymethyl = O=C(O)C*; Nle = CCCC[C@H](N)C(=O)O; Orn = NCCC[C@H](N)C(=O)O; Dab = NCC[C@H](N)C(=O)O; AEEA = NCCOCCOCC(=O)O; CF3 = FC(F)(F)*

Target: T1, PD-1/PD-L1 interaction (PE-labeled human PD-L1-Ig binding to Jurkat cell line over-expressing human PD-1) (Homo sapiens, UniProt Q15116)
T1 construct: expressed in transfected cells; host or cells: Jurkat
T1 sequence (Q15116 25-288): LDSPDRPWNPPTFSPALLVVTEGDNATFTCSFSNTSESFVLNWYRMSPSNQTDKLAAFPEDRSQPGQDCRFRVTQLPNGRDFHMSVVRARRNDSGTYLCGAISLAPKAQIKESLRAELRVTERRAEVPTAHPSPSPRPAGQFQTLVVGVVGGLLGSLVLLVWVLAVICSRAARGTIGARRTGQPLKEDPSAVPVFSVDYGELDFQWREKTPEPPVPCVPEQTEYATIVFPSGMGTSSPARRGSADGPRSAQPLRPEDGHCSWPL
Assay: Jurkat-PD-1 Cell Binding High-Content Screening Assay (CBA)
Format: cell-based
Conditions: Jurkat cell line over-expressing human PD-1; PE-labeled PD-L1-Ig 20 nM final; read-out: Jurkat hPD1-PDL1 IC50
Method in brief: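 Binding of fluorescent PD-L1-Ig (phycoerythrin on Ig tag, 20 nM final, 1 h) measured by high-content imaging of fixed, Hoechst-counterstained Jurkat-hPD-1 cells. Compound added 2 h at 37° C beforehand, in DMEM with 10% fetal calf serum.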

Compound | IC50
Cc1cccc(C[C@@H]2NC(=O)[C@H](CC(=O)O)NC(=O)[C@H](Cc3ccc(OCC(=O)O)cc3)NC(=O)[C@H](C)NC(=O)CSC[C@@H](C(=O)N[C@@H](CCN)C(=O)NCCOCCOCC(=O)NCCOCCOCC(=O)NCCOCCOCC(=O)NCCCCCCCCCCCCCCC(=O)O)NC(=O)[C@H](Cc3cnc[nH]3)NC(=O)[C@H](C(C)(C)O)NC(=O)[C@H](CC3CCCCC3)NC(=O)[C@H](CCN)NC(=O)[C@@H](CC(C)C)NC(=O)[C@H](CCCN)NC(=O)[C@H](Cc3ccc(C(=O)O)cc3)NC(=O)[C@H](Cc3ccc(-c4ccccc4)cc3)NC(=O)[C@H](Cc3ccc(C(=O)O)cc3)NC2=O)c1 [Compound 3856] ({CH2CO}-AY(Carboxymethyl)D[Phe(3-Me)][Phe(4-COOH)][Bip][Phe(4-COOH)][Orn][dL][Dab][Cha][Val(3-OH)]HC[Dab][AEEA][AEEA][AEEA]-{NH(CH2)14COOH}; thioether N-14) | 94.2 nM
CC(C)C[C@H]1NC(=O)[C@H](Cc2cnc[nH]2)NC(=O)[C@H](Cc2ccc(C(=O)O)cc2)NC(=O)[C@H](Cc2ccc(-c3ccccc3)cc2)NC(=O)[C@H](Cc2ccc(C(=O)O)cc2)NC(=O)[C@H](Cc2cccc(C(F)(F)F)c2)NC(=O)[C@H](CC(=O)O)NC(=O)[C@H](Cc2ccc(OCC(=O)O)cc2)NC(=O)[C@H](CC(F)(F)F)NC(=O)CSC[C@@H](C(=O)N[C@@H](CCN)C(=O)NCCCCCCCCCCCCC(=O)O)NC(=O)[C@H](CO)NC(=O)[C@H](C(C)(C)O)NC(=O)[C@H](CC2CCCCC2)NC(=O)[C@H](CCN)NC1=O [Compound 3857] ({CH2CO}-[Abu(4,4,4-F3)]Y(Carboxymethyl)D[Phe(3-CF3)][Phe(4-COOH)][Bip][Phe(4-COOH)]H[dL][Dab][Cha][Val(3-OH)]SC[Dab]-{NH(CH2)12COOH}; thioether N-14) | 166 nM
CC(=O)NCCCC[C@@H]1NC(=O)[C@H](C(C)(C)O)NC(=O)[C@H](CC2CCCCC2)NC(=O)[C@H](CCN)NC(=O)[C@@H](CC(C)C)NC(=O)[C@H](CCCN)NC(=O)[C@H](Cc2ccc(C(=O)O)cc2)NC(=O)[C@H](Cc2ccc(-c3ccccc3)cc2)NC(=O)[C@H](Cc2ccc(C(=O)O)cc2)NC(=O)[C@H](Cc2cccc(C)c2)NC(=O)[C@H](CC(=O)O)NC(=O)[C@H](Cc2ccc(OC(F)(F)F)cc2)NC(=O)[C@H](Cc2ccc(OCC(=O)O)cc2)NC(=O)CSC[C@@H](C(=O)N[C@@H](CCN)C(=O)NCCOCCOCC(=O)NCCCCCCCCCCCCC(=O)O)NC1=O [Compound 3859] ({CH2CO}-Y(Carboxymethyl)Y(CF3)D[Phe(3-Me)][Phe(4-COOH)][Bip][Phe(4-COOH)][Orn][dL][Dab][Cha][Val(3-OH)]K(Ac)C[Dab][AEEA]-{NH(CH2)12COOH}; thioether N-14) | 52.7 nM
CC(C)C[C@H]1NC(=O)[C@H](Cc2cnc[nH]2)NC(=O)[C@H](Cc2ccc(OCC(=O)O)cc2)NC(=O)[C@H](Cc2ccc(-c3ccccc3)cc2)NC(=O)[C@H](Cc2ccc(C(=O)O)cc2)NC(=O)[C@H](Cc2cccc(C(F)(F)F)c2)NC(=O)[C@H](CC(=O)O)NC(=O)[C@H](Cc2ccc(OCC(=O)O)cc2)NC(=O)[C@H](C(C)O)NC(=O)CSC[C@@H](C(=O)N[C@@H](CCN)C(=O)NCCCCCCCCCCCCCCC(=O)O)NC(=O)[C@H](C(C)O)NC(=O)[C@H](C(C)(C)O)NC(=O)[C@H](CC2CCCCC2)NC(=O)[C@H](CCN)NC1=O (stereo partly drawn) [Compound 3861] ({CH2CO}-[Thr(3ξ)]Y(Carboxymethyl)D[Phe(3-CF3)][Phe(4-COOH)][Bip]Y(Carboxymethyl)H[dL][Dab][Cha][Val(3-OH)][Thr(3ξ)]C[Dab]-{NH(CH2)14COOH}; thioether N-14) | 348 nM
CC(C)C[C@H]1NC(=O)[C@H](Cc2cnc[nH]2)NC(=O)[C@H](Cc2ccc(OCC(=O)O)cc2)NC(=O)[C@H](Cc2ccc(-c3ccccc3)cc2)NC(=O)[C@H](Cc2ccc(C(=O)O)cc2)NC(=O)[C@H](Cc2cccc(C(F)(F)F)c2)NC(=O)[C@H](CC(=O)O)NC(=O)[C@H](Cc2ccc(OCC(=O)O)cc2)NC(=O)[C@H](C)NC(=O)CSC[C@@H](C(=O)N[C@@H](CCN)C(=O)NCCCCCCCCCCCCCCC(=O)O)NC(=O)[C@H](C(C)O)NC(=O)[C@H](C(C)(C)O)NC(=O)[C@H](CC2CCCCC2)NC(=O)[C@H](CCN)NC1=O (stereo partly drawn) [Compound 3862] ({CH2CO}-AY(Carboxymethyl)D[Phe(3-CF3)][Phe(4-COOH)][Bip]Y(Carboxymethyl)H[dL][Dab][Cha][Val(3-OH)][Thr(3ξ)]C[Dab]-{NH(CH2)14COOH}; thioether N-14) | 368 nM
CCCC[C@@H]1NC(=O)CSC[C@@H](C(=O)N[C@@H](CCN)C(=O)NCCCCCCCCCCCCCCC(=O)O)NC(=O)[C@H](C(C)O)NC(=O)[C@H](C(C)(C)O)NC(=O)[C@H](CC2CCCCC2)NC(=O)[C@H](CCN)NC(=O)[C@@H](CC(C)C)NC(=O)[C@H](Cc2cnc[nH]2)NC(=O)[C@H](Cc2ccc(OCC(=O)O)cc2)NC(=O)[C@H](Cc2ccc(-c3ccccc3)cc2)NC(=O)[C@H](Cc2ccc(C(=O)O)cc2)NC(=O)[C@H](Cc2cccc(C(F)(F)F)c2)NC(=O)[C@H](CC(=O)O)NC(=O)[C@H](Cc2ccc(OCC(=O)O)cc2)NC1=O (stereo partly drawn) [Compound 3863] ({CH2CO}-[Nle]Y(Carboxymethyl)D[Phe(3-CF3)][Phe(4-COOH)][Bip]Y(Carboxymethyl)H[dL][Dab][Cha][Val(3-OH)][Thr(3ξ)]C[Dab]-{NH(CH2)14COOH}; thioether N-14) | 430 nM
CC(=O)NCCCC[C@@H]1NC(=O)[C@H](C(C)(C)O)NC(=O)[C@H](CC2CCCCC2)NC(=O)[C@H](CCN)NC(=O)[C@@H](CC(C)C)NC(=O)[C@H](CCCN)NC(=O)[C@H](Cc2ccc(C(=O)O)cc2)NC(=O)[C@H](Cc2ccc(-c3ccccc3)cc2)NC(=O)[C@H](Cc2ccc(C(=O)O)cc2)NC(=O)[C@H](Cc2cccc(C)c2)NC(=O)[C@H](CC(=O)O)NC(=O)[C@H](Cc2ccc(OCC(=O)O)cc2)NC(=O)[C@H](Cc2ccc(OCC(=O)O)cc2)NC(=O)CSC[C@@H](C(=O)N[C@@H](CCN)C(=O)NCCCCCCCCCCCCCCC(=O)O)NC1=O [Compound 3865] ({CH2CO}-Y(Carboxymethyl)Y(Carboxymethyl)D[Phe(3-Me)][Phe(4-COOH)][Bip][Phe(4-COOH)][Orn][dL][Dab][Cha][Val(3-OH)]K(Ac)C[Dab]-{NH(CH2)14COOH}; thioether N-14) | 119 nM
CC(C)C[C@H]1NC(=O)[C@H](CCCN)NC(=O)[C@H](Cc2ccc(OCC(=O)O)cc2)NC(=O)[C@H](Cc2ccc(-c3ccccc3)cc2)NC(=O)[C@H](Cc2ccc(CCC(=O)O)cc2)NC(=O)[C@H](Cc2cccc(C(F)(F)F)c2)NC(=O)[C@H](CC(=O)O)NC(=O)[C@H](Cc2ccc(OC(F)(F)F)cc2)NC(=O)[C@H](C)NC(=O)CSC[C@@H](C(=O)N[C@@H](CCN)C(=O)NCCCCCCCCCCCCCCC(=O)O)NC(=O)[C@H](CCC(=O)O)NC(=O)[C@H](C(C)C)NC(=O)[C@H](CC2CCCCC2)NC(=O)[C@H](CCN)NC1=O [Compound 3866] ({CH2CO}-AY(CF3)D[Phe(3-CF3)][Phe(4-CH2CH2COOH)][Bip]Y(Carboxymethyl)[Orn][dL][Dab][Cha]VEC[Dab]-{NH(CH2)14COOH}; thioether N-14) | 676 nM
CC(C)C[C@H]1NC(=O)[C@H](Cc2cnc[nH]2)NC(=O)[C@H](Cc2ccc(C(=O)O)cc2)NC(=O)[C@H](Cc2ccc(-c3ccccc3)cc2)NC(=O)[C@H](Cc2ccc(C(=O)O)cc2)NC(=O)[C@H](Cc2cccc(C(F)(F)F)c2)NC(=O)[C@H](CC(=O)O)NC(=O)[C@H](Cc2ccc(C(=O)O)cc2)NC(=O)[C@H](C(C)O)NC(=O)CSC[C@@H](C(=O)N[C@@H](CCN)C(=O)NCCOCCOCC(=O)NCCCCCCCCCCCCC(=O)O)NC(=O)[C@H](CC(=O)O)NC(=O)[C@H](C(C)C)NC(=O)[C@H](CC2CCCCC2)NC(=O)[C@H](CCN)NC1=O (stereo partly drawn) [Compound 3867] ({CH2CO}-[Thr(3ξ)][Phe(4-COOH)]D[Phe(3-CF3)][Phe(4-COOH)][Bip][Phe(4-COOH)]H[dL][Dab][Cha]VDC[Dab][AEEA]-{NH(CH2)12COOH}; thioether N-14) | 48.1 nM
CC(C)C[C@H]1NC(=O)[C@H](CCCN)NC(=O)[C@H](Cc2ccc(OCC(=O)O)cc2)NC(=O)[C@H](Cc2ccc(-c3ccccc3)cc2)NC(=O)[C@H](Cc2ccc(OCC(=O)O)cc2)NC(=O)[C@H](Cc2cccc(C(F)(F)F)c2)NC(=O)[C@H](CC(=O)O)NC(=O)[C@H](Cc2ccc(OCC(=O)O)cc2)NC(=O)[C@H](Cc2c[nH]cn2)NC(=O)CSC[C@@H](C(=O)N[C@@H](CCN)C(=O)NCCCCCCCCCCCCCCC(=O)O)NC(=O)[C@H](CCC(=O)O)NC(=O)[C@H](C(C)(C)O)NC(=O)[C@H](CC2CCCCC2)NC(=O)[C@H](CCN)NC1=O [Compound 3868] ({CH2CO}-HY(Carboxymethyl)D[Phe(3-CF3)]Y(Carboxymethyl)[Bip]Y(Carboxymethyl)[Orn][dL][Dab][Cha][Val(3-OH)]EC[Dab]-{NH(CH2)14COOH}; thioether N-14) | 156 nM
Cc1cccc(C[C@@H]2NC(=O)[C@H](CC(=O)O)NC(=O)[C@H](Cc3ccc(OCC(=O)O)cc3)NC(=O)[C@H](C)NC(=O)CSC[C@@H](C(=O)N[C@@H](CCN)C(=O)NCCOCCOCC(=O)NCCOCCOCC(=O)NCCOCCOCC(=O)NCCOCCOCC(=O)NCCCCCCCCCCCCCCC(=O)O)NC(=O)[C@H](CO)NC(=O)[C@H](C(C)(C)O)NC(=O)[C@H](CC3CCCCC3)NC(=O)[C@H](CCN)NC(=O)[C@@H](CC(C)C)NC(=O)[C@H](CCCN)NC(=O)[C@H](Cc3ccc(OCC(=O)O)cc3)NC(=O)[C@H](Cc3ccc(-c4ccccc4)cc3)NC(=O)[C@H](Cc3ccc(OCC(=O)O)cc3)NC2=O)c1 [Compound 3869] ({CH2CO}-AY(Carboxymethyl)D[Phe(3-Me)]Y(Carboxymethyl)[Bip]Y(Carboxymethyl)[Orn][dL][Dab][Cha][Val(3-OH)]SC[Dab][AEEA][AEEA][AEEA][AEEA]-{NH(CH2)14COOH}; thioether N-14) | 71.1 nM
